Results: ChEMBL document CHEMBL5038569, “Targeting RECQL5 Functions, by a Small Molecule, Selectively Kills Breast Cancer in Vitro and in Vivo” (J Med Chem, 2021)
Calls of active or inactive are those of the source. The calls are words filed in the database; no cut-off is given here.

What was measured:
MCF7 [1] = experiment: Induction of DNA damage in RECQL5 knock out human MCF7 cells assessed as double strand breaks by measuring increase in phosphorylation of CHK1 at S345 residue at 20 uM measured up to 24 hrs by Western blot analysis; type: functional, cell-based; conditions: time hrs <=24
MCF7 [2] = experiment: Reversal of RECQL5 knock out resistance phenotype in human MCF7 cells expressing RFP assessed as reduction in cell viability at 6 to 25 uM measured after 72 hrs by MTT assay; type: functional, cell-based; conditions: dose 6-25 µM
MCF7 [3] = experiment: Induction of DNA damage in human MCF7 cells expressing wild type RECQL5 assessed as double strand breaks by measuring increase in phosphorylation of CHK2 at T68 residue at 20 uM measured up to 24 hrs by Western blot analysis; type: functional, cell-based; conditions: time hrs <=24
[4] = Chronic toxicity in […] mouse assessed as change in body weight at 100 mg/kg, po administered as single dose via gavage measured for 30 days; type: organism-based; conditions: in vivo, 720 h, time 30 day
MCF7 [5] = experiment: Antitumor activity against RECQL5 knock out human MCF7 cells xenografted in nude mouse assessed as reduction in tumor growth at 50 mg/kg, po administered as single dose via gavage measured after 30 days; type: functional, organism-based; conditions: time 30.0 day
[6] = Inhibition of ds-DNA dependent human RECQL5 ATPase activity measured after 60 mins by luciferin-based multiplate reader method
MCF7 [7] = experiment: Effect on homologous recombinant repair in human MCF7 cells expressing wild type RECQL5 assessed as accumulation of MRE11 protein on chromatin at 20 uM incubated for 4 to 24 hrs by Western blot analysis; type: functional, cell-based; conditions: time 4-24 hrs, TDE = time-dependent effect
MCF7 [8] = experiment: Effect on homologous recombinant repair in human MCF7 cells expressing wild type RECQL5 assessed as accumulation of NBS1 protein on chromatin at 20 uM incubated for 4 to 24 hrs by Western blot analysis; type: functional, cell-based; conditions: time 4-24 hrs, TDE = time-dependent effect
U2OS [9] = experiment: Induction of apoptosis in RECQL5 depleted human U2OS cells assessed as cell death measured after 72 hrs by propidium iodide/RNase A staining based flow cytometric analysis; type: functional
MCF7 [10] = experiment: Induction of cell sensitization to cisplatin in human MCF-7 cells assessed as reduction in colony formation at 5 uM measured after 8 to 10 days by clonogenic survival assay; type: functional, cell-based; conditions: time 8-10 day
MCF7 [11] = experiment: Cytotoxicity against human MCF7 cells with shRNA-mediated BLM depletion assessed as reduction in cell viability at 6 to 25 uM measured after 8 to 10 days by clonogenic survival assay; type: functional, cell-based; conditions: dose 6-25 µM, time 8-10 day
T47D [12] = experiment: Induction of DNA damage in human T47D cells expressing wild type RECQL5 assessed as double strand breaks by measuring increase in gamma-H2AX foci formation incubated for 24 hrs by immunofluorescence microscopic analysis; type: functional, cell-based; conditions: dose 0-20 µM
MCF7 [13] = experiment: Inhibition of homologous recombinant repair in RECQL5 knock out human MCF7 cells assessed as stabilization of RAD51-RECQL5 interaction by measuring increase in RAD51 foci formation at 20 uM measured after 4 to 24 hrs by immunofluorescence microscopic analysis; type: functional, cell-based; conditions: time 4-24 hrs
MCF7 [14] = experiment: Induction of DNA damage in RECQL5 knock out human MCF7 cells assessed as double strand breaks by measuring increase in phosphorylation of RPA2 at 20 uM measured after 4 to 24 hrs by Western blot analysis; type: functional, cell-based; conditions: time 4-24 hrs
MCF7 [15] = experiment: Stabilization of RECQL5-RAD51 complex in human MCF7 cells expressing wild type RECQL5 assessed as increase in accumulation of chromatin-bound RECQL5 and RAD51 at 20 uM measured after 4 to 24 hrs by Western blot analysis; type: cell-based; conditions: time 4-24 hrs, TDE = time-dependent effect
MCF7 [16] = experiment: Stabilization of RECQL5-RAD51 complex in human MCF7 cells expressing wild type RECQL5 assessed as increase in accumulation of nucleus-bound RECQL5 and RAD51 at 20 uM measured after 4 to 24 hrs by Western blot analysis; type: cell-based; conditions: time 4-24 hrs
MCF7 [17] = experiment: Cytotoxicity against human MCF7 cells with shRNA-mediated RECQL1 depletion assessed as reduction in cell viability at 6 to 25 uM measured after 8 to 10 days by clonogenic survival assay; type: functional, cell-based; conditions: dose 6-25 µM, time 8-10 day
[18] = Toxicity in nude mouse xenografted with human MCF7 cells assessed as morphological changes in lungs at 50 mg/kg, po administered via oral gavage and measured after 30 days; type: organism-based; conditions: in vivo, 720 h, time 30 day
[19] = Toxicity in […] mouse assessed as fold change in creatinine level at 100 mg/kg, po administered as single dose via gavage measured after 30 days relative to control; type: organism-based; conditions: in vivo, 720 h, time 30 day
MDA-MB-231 = experiment: Cytotoxicity against ER/PR/HER2-negative human MDA-MB-231 cells expressing wild type RECQL5 and p53 mutant assessed as reduction in colony formation measured after 8 to 10 days by clonogenic survival assay; type: functional, cell-based; conditions: time 8-10 day
[20] = Chronic toxicity in […] mouse assessed as change in stool texture at 100 mg/kg, po administered as single dose via gavage measured for 30 days; type: organism-based; conditions: in vivo, 720 h, time 30 day
MCF7 [21] = experiment: Effect on NHEJ-mediated double strand break repair in human MCF7 cells expressing wild type RECQL5 assessed as accumulation of DNA-dependent protein kinase on chromatin at 20 uM measured up to 24 hrs by Western blot analysis; type: cell-based; conditions: time hrs <=24
MCF7 [22] = experiment: Induction of apoptosis in human MCF7 cells expressing wild type RECQL5 assessed as fold increase in cell death at 20 uM measured after 72 hrs by propidium iodide/RNase A staining based flow cytometric analysis relative to control; type: functional
T47D [23] = experiment: Induction of DNA damage in RECQL5 knock out human T47D cells assessed as double strand breaks by measuring increase in gamma-H2AX foci formation incubated for 24 hrs by immunofluorescence microscopic analysis; type: functional, cell-based
[24] = Toxicity in nude mouse xenografted with human MCF7 cells assessed as morphological changes in heart at 50 mg/kg, po administered via oral gavage and measured after 30 days; type: organism-based; conditions: in vivo, 720 h, time 30 day
[25] = Inhibition of full length His-tagged human RECQL5 expressed in Escherichia coli incubated for 15 mins by fluorescence based assay
U2OS [26] = experiment: Cytotoxicity against human U2OS cells expressing wild type RECQL5 and p53 mutant assessed as reduction in colony formation measured after 8 to 10 days by clonogenic survival assay; type: functional, cell-based; conditions: time 8-10 day
[27] = Toxicity in […] mouse assessed as fold change in SGPT level at 100 mg/kg, po administered as single dose via gavage measured after 30 days relative to control; type: organism-based; conditions: in vivo, 720 h, time 30 day
[28] = Toxicity in nude mouse xenografted with human MCF7 cells assessed as morphological changes in liver at 50 mg/kg, po administered via oral gavage and measured after 30 days; type: organism-based; conditions: in vivo, 720 h, time 30 day
[29] = Toxicity in nude mouse xenografted with human MCF7 cells assessed as morphological changes in kidney at 50 mg/kg, po administered via oral gavage and measured after 30 days; type: organism-based; conditions: in vivo, 720 h, time 30 day
MCF7 [30] = experiment: Effect on NHEJ-mediated double strand break repair in human MCF7 cells expressing wild type RECQL5 assessed as accumulation of KU80 on chromatin at 20 uM measured up to 24 hrs by Western blot analysis; type: cell-based; conditions: time hrs <=24
MCF7 [31] = experiment: Cytotoxicity against RECQL5 knock out human MCF7 cells expressing wild type RECQL5-FLAG assessed as reduction in colony formation at 10 uM measured after 8 to 10 days by clonogenic survival assay; type: functional, cell-based; conditions: time 8-10 day
MCF7 [32] = experiment: Cytotoxicity against human MCF7 cells expressing RECQL5 assessed as cell growth inhibition measured after 72 hrs by MTT assay; type: functional

In the case of O=C(Nc1cc(C(F)(F)F)cc(C(F)(F)F)c1)N[C@@H](c1ccccc1)c1nnc(SCc2ccccc2)o1, the Activity (MCF7 [1]) is reported as “inactive”, the Activity (MCF7 [2]) is reported as “inactive” and the Activity (MCF7 [3]) is reported as “Active”. The Activity [4] was “Non-Toxic”, the Activity (MCF7 [5]) was “inactive” and the IC50 [6] was 23.9 µM. The Activity (MCF7 [7]) was “Tde”, the Activity (MCF7 [8]) was “Tde” and the Activity (U2OS [9]) was “inactive”. For the same compound, the Activity (MCF7 [10]) was “Active”, the Activity (MCF7 [11]) was “Active” and the Activity (T47D [12]) was “Dose-Dependent Effect”. For the same compound, the inhibition (MCF7 [13]) was “inactive”, the Activity (MCF7 [14]) was “inactive” and the Activity (MCF7 [15]) was “Tde”. The Activity (MCF7 [16]) was “inactive”, the Activity (MCF7 [17]) was “Active” and the Activity [18] was “Non-Toxic”. The “fold change (FC)” value [19] was 1.05, the Activity (MDA-MB-231) was “Active” and the Activity [20] was “Non-Toxic”. The Activity (MCF7 [21]) was “inactive”, the “fold change (FC)” value (MCF7 [22]) was 2.5 and the Activity (T47D [23]) was “inactive”. The Activity [24] was “Non-Toxic”, the IC50 [25] was 0.0463 µM and the Activity (U2OS [26]) was “Active”. For the same compound, the “fold change (FC)” value [27] was 0.92, the Activity [28] was “Non-Toxic” and the Activity [29] was “Non-Toxic”. For the same compound, the Activity (MCF7 [30]) was “inactive”, the Activity (MCF7 [31]) was “Active” and the IC20 (MCF7 [32]) was 8.4 µM.
